Common to all, as to assay type: functional, cell-based
One experiment relates to HepG2. The experiment in a line: Antiproliferative activity against human HepG2 cells assessed as cell growth inhibition measured after 48 hrs by MTT assay. The settings on record: HepG2, 48 h. A general note: Tetrazolium assays rely on reduction of a dye to a coloured formazan, in cell work by metabolically active cells.
The test system of a further experiment is MGC-803. The experiment in a line: Antiproliferative activity against human MGC-803 cells assessed as cell growth inhibition measured after 48 hrs by MTT assay. The settings on record: MGC-803, 48 h.
The subject of the next experiment is SK-OV-3. The experiment in a line: Antiproliferative activity against human SK-OV-3 cells assessed as cell growth inhibition measured after 48 hrs by MTT assay. The settings on record: SK-OV-3, 48 h.
The subject of experiment [1] is T-24. Briefly: Antiproliferative activity against human T24 cells assessed as cell growth inhibition measured after 48 hrs by MTT assay. The settings on record: T-24, 48 h.
The subject of the next experiment is WI-38. The experiment in a line: Antiproliferative activity against human WI-38 cells assessed as cell growth inhibition measured after 48 hrs by MTT assay. The settings on record: WI-38, 48 h.
The test system of experiment [2] is T-24. Briefly: Induction of mitochondrial membrane potential dysfunction in human T24 cells assessed as mitochondrial fragment condensation at 0.5 to 1 uM by mito-tracker green dye based fluorescence microscopy. The settings on record: dose 0.5-1 µM.

Molecules are shown by their SMILES. Active and inactive are the calls of the source. The rule behind the calls is not given here.

What is called IC50 is the concentration at which inhibition is half-maximal. With `O=C1c2cc3c(cc2-c2cccc4ccnc1c24)OCO3`, the IC50 with HepG2 was over 40 µM; with MGC-803 it was 20.8 µM; in the experiment with SK-OV-3 it was 38.1 µM; in the experiment on T-24 [1] it was 14.2 µM; in the experiment with WI-38 it was over 40 µM.

Turning to `COc1ccc2c3c(nccc13)C(=O)c1cc(O)ccc1-2`, the half-maximal inhibitory concentration (IC50) is 34.1 µM in the experiment with HepG2; over 40 µM with MGC-803; 32.9 µM in the experiment with SK-OV-3; 12.3 µM in the experiment on T-24 [1]; over 40 µM in the experiment on WI-38.

On to `O=C1c2c(F)cccc2-c2cccc3ccnc1c23`, for which the IC50 in the experiment on HepG2 is 30.3 µM; in the experiment with MGC-803, 16.2 µM; in the experiment on SK-OV-3, 22.3 µM; in the experiment on T-24 [1] it was 15.2 µM; in the experiment on WI-38, over 40 µM. For the same molecule, in the experiment with T-24 [2], the outcome was Active.

`COc1ccc2c(c1)C(=O)c1nccc3cccc-2c13`: the IC50 with HepG2 was determined as 7.3 µM; with MGC-803 it was 14.8 µM; in the experiment on SK-OV-3, 19.4 µM; in the experiment on T-24 [1] it was 20.4 µM; in the experiment on WI-38, 28.7 µM.

For the molecule `O=C1c2cc(O)ccc2-c2cccc3ccnc1c23`, the IC50 in the experiment with HepG2 was over 40 µM; with MGC-803, 21.5 µM; in the experiment on SK-OV-3 it was 29.4 µM; in the experiment with T-24 [1] it was 28.9 µM; in the experiment on WI-38, over 40 µM.

As to `O=C1c2cc([N+](=O)[O-])ccc2-c2cccc3ccnc1c23`, the IC50 in the experiment with HepG2, in the experiment on MGC-803, with SK-OV-3, in the experiment with T-24 [1] and with WI-38 was over 40 µM throughout.

As for `O=C1c2ccc(Cl)cc2-c2cccc3ccnc1c23`, the IC50 with HepG2 was over 40 µM; with MGC-803, 15.9 µM; with SK-OV-3 it was 27.2 µM; with T-24 [1] it was 16.8 µM; in the experiment with WI-38 it was over 40 µM.

As to `O=c1[nH]cc(F)c(=O)[nH]1` [FLUOROURACIL], the IC50 in the experiment on HepG2 was 20.4 µM; in the experiment on MGC-803, 39.1 µM; in the experiment on SK-OV-3, 21.6 µM; in the experiment on T-24 [1], 39.4 µM; in the experiment on WI-38 it was over 40 µM.

For the molecule `Cc1ccc2c(c1)C(=O)c1nccc3cccc-2c13`, the concentration for half-maximal inhibition (IC50) in the experiment on HepG2 stood at 13.1 µM; in the experiment with MGC-803, 10 µM; in the experiment with SK-OV-3, 17 µM; in the experiment on T-24 [1], 12.4 µM; with WI-38, 28.4 µM.

With `COc1cc2c3c(nccc3c1OC)C(=O)c1cc(O)ccc1-2`, the half-inhibitory concentration (IC50) with HepG2 is 36.9 µM; in the experiment on MGC-803, 30.9 µM; in the experiment on SK-OV-3, 38.4 µM; in the experiment on T-24 [1] it was 26.2 µM; with WI-38, over 40 µM.

As for `O=C1c2ccc(F)cc2-c2cccc3ccnc1c23`, the IC50 in the experiment on HepG2 is 27.4 µM; in the experiment on MGC-803, 17.8 µM; in the experiment on SK-OV-3, 27.4 µM; in the experiment with T-24 [1], 21.2 µM; with WI-38 it was 36.5 µM.

`COc1cc2c(cc1OC)-c1cccc3ccnc(c13)C2=O`: the concentration for half-maximal inhibition (IC50) with HepG2 is 35.9 µM; in the experiment on MGC-803, 10.9 µM; with SK-OV-3 it was over 40 µM; with T-24 [1], 22.3 µM; with WI-38 it was 38.2 µM.

For `COc1cc2ccnc3c2c(c1OC)-c1ccccc1C3=O` [LYSICAMINE], the IC50 is over 40 µM in the experiment on HepG2; 15.8 µM in the experiment with MGC-803; 12.1 µM in the experiment on SK-OV-3; 7.3 µM with T-24 [1]; 6.7 µM in the experiment with WI-38.

Regarding `COc1ccc2c(c1)-c1cccc3ccnc(c13)C2=O`, the IC50 in the experiment with HepG2 is 19.6 µM; in the experiment with MGC-803, 16.6 µM; in the experiment with SK-OV-3, 26.1 µM; with T-24 [1] it was 18.9 µM; with WI-38, over 40 µM.

For the molecule `O=C1c2cc(Cl)ccc2-c2cccc3ccnc1c23`, the IC50 in the experiment on HepG2 was 15.3 µM; in the experiment on MGC-803, 26.3 µM; in the experiment with SK-OV-3, over 40 µM; with T-24 [1], 34.1 µM; in the experiment on WI-38, over 40 µM.

For `COc1cc2c3c(nccc3c1OC)C(=O)c1cc(OCc3ccccc3)ccc1-2`, the IC50 in the experiment with HepG2 was over 40 µM; in the experiment with MGC-803, 15.8 µM; with SK-OV-3, 22.1 µM; with T-24 [1], 7.3 µM; in the experiment on WI-38 it was 35.1 µM.

Consider `COc1ccc2c3c(nccc13)C(=O)c1cc(OCc3ccccc3)ccc1-2`, for which the IC50 in the experiment with HepG2 was 25.8 µM; with MGC-803, 16.7 µM; in the experiment on SK-OV-3 it was 18.5 µM; in the experiment on T-24 [1], 19.1 µM; in the experiment with WI-38 it was 38.6 µM.

Turning to `COc1cc2c3c(nccc3c1OC)C(=O)c1ccccc1-2`, the IC50 in the experiment with HepG2 was determined as 35 µM; with MGC-803, 9.2 µM; with SK-OV-3, 27.4 µM; in the experiment on T-24 [1], 18.3 µM; with WI-38 it was 29.7 µM. Moreover, the outcome in the experiment with T-24 [2] was Active.

As for `O=C1c2cc(OCc3ccccc3)ccc2-c2cccc3ccnc1c23`, the IC50 with HepG2, in the experiment with MGC-803, in the experiment on SK-OV-3, in the experiment on T-24 [1] and in the experiment on WI-38 was over 40 µM throughout.

For the molecule `COc1ccc2c3c(nccc13)C(=O)c1ccccc1-2`, the IC50 in the experiment on HepG2 is 12.8 µM; with MGC-803, 7.3 µM; in the experiment with SK-OV-3 it was 10.4 µM; with T-24 [1], 6.5 µM; in the experiment with WI-38, 20.4 µM.

For `Cc1ccc2c(c1)-c1cccc3ccnc(c13)C2=O`, the IC50 stood at 30.1 µM with HepG2; 10.6 µM with MGC-803; 16.7 µM in the experiment on SK-OV-3; 8.6 µM in the experiment with T-24 [1]; 32.4 µM in the experiment with WI-38.

Values taken from ChEMBL document CHEMBL5131473, “One-pot synthesis of oxoaporphines as potent antitumor agents and investigation of their mechanisms of actions” (Eur J Med Chem, 2022).
